Test results published in patent US7642051B2, “Screening methods for the identification of inhibitors of human immunodeficiency virus (HIV) viral protein R (Vpr) binding to the adenine nucleotide translocator (ANT)” (priority 2000, dated 2010).
“Also recorded” adds a separate entry of the source. Where two headings read alike, the source gives them in different places. Where no end group is shown, it is not given here.

How the values were obtained:
Vpr52-96-ANT interaction = biological target: T1, Vpr52-96-ANT interaction (Rattus norvegicus, UniProt Q05962); type: binding; conditions: BA 250 μM, Atr 50 μM, peptides 5 μM
T1 construct: from tissue; host or cells: rat heart (ANT)
T1 sequence (Q05962 2-298 limits assumed): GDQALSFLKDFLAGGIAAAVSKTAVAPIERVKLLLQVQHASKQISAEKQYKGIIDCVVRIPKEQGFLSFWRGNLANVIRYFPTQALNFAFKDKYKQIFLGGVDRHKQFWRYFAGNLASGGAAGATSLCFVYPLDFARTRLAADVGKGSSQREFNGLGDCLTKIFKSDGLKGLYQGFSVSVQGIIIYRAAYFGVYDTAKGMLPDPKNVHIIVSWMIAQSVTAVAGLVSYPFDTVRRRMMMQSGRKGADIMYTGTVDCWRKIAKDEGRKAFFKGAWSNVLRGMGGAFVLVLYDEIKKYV

purified mitochondria [1] = experiment: ΔΨm dissipation in purified mitochondria (JC-1 flow cytometry); type: biochemical; conditions: for inhibition of Vpr-induced ΔΨm loss in purified mitochondria: 5 μM CsA, 50 μM BA, 0.8 μM Bcl-2, 2 μM PA10, Vpr52-96 3 μM, 5 min
Protocol: C. […] Purified mitochondria were treated with 1 μM Vpr52-96 subjected to cytofluorometric determination of the percentage of mitochondria having a low ΔΨm using the ΔΨm-sensitive fluorochrome JC-1. In parallel, cytochrome c was immunodetected in the supernatant of mitochondria.
Numbers indicate the percentage of JC-1^high and JC-1^low mitochondria among ˜10^4 events.
E. Quantitation of the frequency of JC-1^low mitochondria (X±SD, n=5) after incubation with different Vpr-derived peptides.

purified mitochondria [2] = experiment: Binding of FITC-Vpr52-96 to purified mitochondria; conditions: pre-incubation 10 min
Protocol: Mitochondria were left unstained (insert in Co.) or exposed to the ΔΨm-insensitive mitochondrial dye MitoTracker® Green (75 nM), alone (MTG) or with 0.5 μM of FITC-Vpr52-96; green fluorescence), in combination with the ΔΨm-sensitive mitochondrial dye MitoTracker® Red (CMXRos; red Fluorescence) followed by cytofluorometric two-color analysis. Numbers indicate the percentage of mitochondria in each quadrant.
(§1) Mitochondria were pre-incubated 10 min. with the indicated inhibitors and the percentage of FITC-Vpr52-96-labelled mitochondria is determined as in A. C. […] Mitochondria were incubated with the indicated inhibitors, and then exposed for 30 min at RT with 5 μM biotinylated Vpr52-96. Mitochondria were lysed either after incubation with biotinylated Vpr52-96 (upper panel) or lysed before (lower panel) with Tris/HCl as described in materials and methods. Biotinylated Vpr52-96 complexed with its mitochondrial ligands was retained on avidin-agarose and subjected to immunoblot detection of ANT.

ANT-proteoliposomes = biological target: T2, ANT-proteoliposomes (Rattus norvegicus, UniProt Q05962); type: binding
T2 construct: ANT is purified from rat heart and reconstituted in liposomes; from tissue; host or cells: rat heart
T2 sequence (Q05962 1-298): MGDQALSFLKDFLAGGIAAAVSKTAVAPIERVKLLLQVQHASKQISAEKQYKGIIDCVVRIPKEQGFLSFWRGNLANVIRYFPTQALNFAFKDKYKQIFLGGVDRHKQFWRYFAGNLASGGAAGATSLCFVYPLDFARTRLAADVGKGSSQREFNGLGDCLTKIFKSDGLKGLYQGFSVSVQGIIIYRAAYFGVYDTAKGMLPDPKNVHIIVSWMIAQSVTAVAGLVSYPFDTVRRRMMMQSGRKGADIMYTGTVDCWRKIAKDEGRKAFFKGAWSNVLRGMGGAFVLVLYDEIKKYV
Protocol: 1. Purification of ANT. ANT is purified from rat heart and reconstituted in liposomes according to the protocol described by Brenner et al., Oncogene, 2000.
2. Reconstitution of ANT in liposomes. ANT (0.03 mg/ml) is incorporated in liposomes composed of phosphatidylcholine and cardiolipine (PC:CL; 45:1; W: w; and 300 ng ANT per mg of lipids) in the presence of 0.3% n-octyl-β-D-pyranoside for 2 min. at room temperature. […] Then, the detergent is eliminated by dialyzing, overnight, the liposomes against the buffer 10 mM HEPES, 125 mM sucrose, pH7.4 at 4° C. (e.g.: about 11 of buffer per 1 ml liposomes).

isolated mitochondria = experiment: Electron microscopy of isolated mitochondria (matrix swelling); type: biochemical; conditions: for inhibition of Vpr-induced matrix swelling: Vpr52-96 3 μM, 0.8 μM Bcl-2 or 2 μM PA10
Description: C. Ultrastructural effects of Vpr on isolated mitochondria.

ANT [3] = biological target: T3, ANT (Rattus norvegicus, UniProt Q05962); type: biochemical
T3 construct: from tissue; host or cells: rat heart
Protocol: (§2) FIG. 3 presents electrophysiological properties of Vpr52-96 and ANT in planar lipid bilayers.
(§3) Single channel recordings were performed using the “Tip-Dip” technique. The recordings shown are representative for at least three independent determinations.
(§4) B. Statistical analysis of conductances obtained in A. Results were expressed as current distributions at different voltages. Conductances (γ; in picosiemens, pS) are calculated by division of current by voltage.

ANT [4] = biological target: T3, ANT; conditions: surface plasmon resonance, Jacotot et al. 2000; cited from earlier work
purified mitochondria [5] = experiment: Respirometry of purified mitochondria (respiratory control); type: biochemical; conditions: 10 min after 1 μM peptide; control mitochondria 5.3
Protocol: A. Oxygen consumption curves after addition of the indicated agents. Trace a: control mitochondria (no pretreatment). Trace b: mitochondria pretreated for 10 min with 1 μM Vpr52-96. Numbers along the traces are nmol of 02 consumed min^−1 mg^−1 protein.
B. Respiratory control (RC) values calculated by dividing oxygen consumption in the presence of CCCP by that measured with oligomycin (determined as in A), 10 min after addition of 1 μM of Vpr-derived peptides (mean values of 3 determinations).

ANT [6] = biological target: T3, ANT; type: binding; conditions: X±SD, n=5; read-out: calculated KD of the interaction of ANT with Vpr52-96
Description: A. Plasma surface resonance sensorgrams of the interaction of ANT with Vpr52-96, Vpr52-96[R73A,80A] or an irrelevant control (Co).
B. Langmuir isotherm determined at different concentrations of ANT on sensorgrams corrected by subtraction of the blank (sensorgrams obtained with Vpr52-96[R73A,80A]).

Vpr52-96 = Vpr52-96 (Human immunodeficiency virus type 1 group M subtype B, UniProt P69726)
ANT [7] = biological target: T4, ANT (Rattus norvegicus, UniProt Q05962); type: biochemical; remark: listed apart in the source
T4 construct: from tissue; host or cells: rat heart
T4 sequence (Q05962 whole entry, looked up): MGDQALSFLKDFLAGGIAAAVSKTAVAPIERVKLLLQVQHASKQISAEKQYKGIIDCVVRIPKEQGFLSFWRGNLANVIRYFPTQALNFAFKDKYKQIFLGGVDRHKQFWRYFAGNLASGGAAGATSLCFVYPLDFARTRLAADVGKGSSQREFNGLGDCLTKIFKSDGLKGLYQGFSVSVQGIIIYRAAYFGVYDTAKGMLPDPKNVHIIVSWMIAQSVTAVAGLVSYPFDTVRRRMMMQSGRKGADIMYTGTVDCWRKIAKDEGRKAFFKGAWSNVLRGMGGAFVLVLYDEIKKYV
Protocol: as §2, §3, §4

COS cells = experiment: Vpr52-96-induced ΔΨm dissipation in intact microinjected cells; type: cell-based; conditions: Bcl-2 10 μM, PA10 2 μM microinjected
Description: A. Vpr52-96-induced ΔΨm dissipation induced in intact cells.

ANT [8] = conditions: 5 μM biotinylated Vpr52-96, 30 min
Protocol: as §1

[9] = biological target: biotin-Vpr52-96 (biotinylated C-terminal moiety of HIV-1 Vpr) (HIV-1), P12520; experiment: surface plasmon resonance, Langmuir isotherm, peptide on biotinylated Vpr52-96
[10] = biological target: T5, adenine nucleotide translocator (ANT), native purified, detergent-solubilized or reconstituted in liposomes / planar lipid bilayers (rat), Q05962; experiment: cell-based or functional assay
T5 chain: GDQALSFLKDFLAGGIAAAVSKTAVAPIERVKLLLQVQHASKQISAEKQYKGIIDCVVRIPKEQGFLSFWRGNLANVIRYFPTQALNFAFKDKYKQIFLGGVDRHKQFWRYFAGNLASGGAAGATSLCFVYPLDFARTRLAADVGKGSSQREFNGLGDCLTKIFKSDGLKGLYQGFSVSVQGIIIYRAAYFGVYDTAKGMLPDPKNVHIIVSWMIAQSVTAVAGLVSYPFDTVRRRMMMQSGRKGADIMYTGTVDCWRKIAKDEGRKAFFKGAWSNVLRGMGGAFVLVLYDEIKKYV

[11] = biological target: T5, adenine nucleotide translocator (ANT), …; experiment: flow cytometry of liposomes; FITC-Vpr52-96 on ANT-proteoliposomes

**Q.** With C=C1[C@@H]2CC[C@H]3[C@]4(C)C[C@H](O[C@@H]5O[C@H](CO)[C@@H](OS(=O)(=O)O)[C@H](OS(=O)(=O)O)[C@H]5OC(=O)CC(C)C)C[C@@H](C(=O)O)[C@H]4CC[C@]3(C2)[C@H]1O [Atr, atractyloside] as the molecule, how does the “modulation of the Vpr52-96-ANT interaction by ANT ligands and peptides” value (Vpr52-96-ANT interaction) read?
**A.** favors Vpr binding

**Q.** Which “inhibition of Vpr-induced ΔΨm loss in purified mitochondria” value (purified mitochondria [1]) does the source give for CO[C@H](C/C=C\C=C\CC/C=C/C[C@H](C)/C=C/C(=C\C(=O)O)CC(=O)O)/C(C)=C\C=C(/C)C(=O)O [BA, bongkrekic acid, reference compound] here?
**A.** inhibited

**Q.** What about the “modulation of the Vpr52-96-ANT interaction by ANT ligands and peptides” value (Vpr52-96-ANT interaction) of the same molecule?
**A.** reduces Vpr binding

**Q.** And the “effect on binding of Vpr52-96 to purified mitochondria” value (purified mitochondria [2])?
**A.** partially reduced

**Q.** And the “effect on Vpr52-96 binding to membrane-associated ANT (ANT proteoliposomes)” value (ANT-proteoliposomes; BA 50 μM, Bcl-2 800 nM)?
**A.** inhibited

**Q.** What about the “inhibition of Vpr-induced matrix swelling” value (isolated mitochondria) of the same molecule?
**A.** inhibited

**Q.** Which results are given for CC[C@H](C)[C@H](NC(=O)[C@H](C)NC(=O)[C@H](CCC(=O)O)NC(=O)[C@@H](NC(=O)CNC(=O)[C@H](C)NC(=O)[C@H](Cc1c[nH]c2ccccc12)NC(=O)[C@@H](NC(=O)[C@@H](N)CC(=O)O)[C@@H](C)O)C(C)C)C(=O)N[C@H](C(=O)N[C@@H](CCCNC(=N)N)C(=O)N[C@H](C(=O)N[C@@H](CC(C)C)C(=O)N[C@@H](CCC(N)=O)C(=O)N[C@@H](CCC(N)=O)C(=O)N[C@@H](CC(C)C)C(=O)N[C@@H](CC(C)C)C(=O)N[C@@H](Cc1ccccc1)C(=O)N[C@H](C(=O)N[C@@H](Cc1c[nH]cn1)C(=O)N[C@@H](Cc1ccccc1)C(=O)N[C@@H](CCCNC(=N)N)C(=O)N[C@H](C(=O)NCC(=O)N[C@@H](CS)C(=O)N[C@@H](CCCNC(=N)N)C(=O)N[C@@H](Cc1c[nH]cn1)C(=O)N[C@@H](CO)C(=O)N[C@@H](CCCNC(=N)N)C(=O)N[C@H](C(=O)NCC(=O)N[C@H](C(=O)N[C@H](C(=O)N[C@@H](CCCNC(=N)N)C(=O)N[C@@H](CCC(N)=O)C(=O)N[C@@H](CCCNC(=N)N)C(=O)N[C@@H](CCCNC(=N)N)C(=O)N[C@@H](C)C(=O)N[C@@H](CCCNC(=N)N)C(=O)N[C@@H](CC(N)=O)C(=O)NCC(=O)N[C@@H](C)C(=O)N[C@@H](CO)C(=O)N[C@@H](CCCNC(=N)N)C(=O)N[C@@H](CO)C(=O)O)[C@@H](C)O)C(C)C)[C@@H](C)CC)[C@@H](C)CC)[C@@H](C)CC)[C@@H](C)CC)[C@@H](C)CC [Vpr52-96]?
**A.** timing of ΔΨm loss relative to cytochrome c release (purified mitochondria [1]; Vpr52-96 1 μM): well before cytochrome c release can be detected; conductance of Vpr52-96-ANT channels without any further addition (ANT [3]; as printed in Example 4): 190±2; channel formation in planar lipid bilayers without ANT (ANT [3]; low doses (<1 nM), no ANT): incapable of forming channels; affinity of Vpr C-terminus for purified ANT (ANT [4]): high affinity in the nanomolar range; respiratory control (RC) value (purified mitochondria [5]): 1.1; Kd (ANT [6]): 0.0097 ± 0.0064 µM; Vpr52-96 binding to ANT liposomes compared to protein-free liposomes (ANT-proteoliposomes): greatly facilitated; ultrastructural effect on mitochondria (isolated mitochondria; 3 μM, 5 or 15 min): matrix swelling before OM rupture became apparent

**Q.** Which results are given for Bcl-2: recombinant human Bcl-2 protein?
**A.** inhibition of Vpr-induced ΔΨm loss in purified mitochondria (purified mitochondria [1]): inhibited; also recorded: strongly reduced; binding of Bcl-2 to Vpr52-96 (Vpr52-96): did not bind Vpr52-96; effect on formation of Vpr52-96 induced channels in ANT-containing lipid bilayers (ANT [7]): abolished the formation of Vpr52-96 induced channels; prevention of Vpr effect on intact cells by microinjection (COS cells): prevented; effect on binding of Vpr52-96 to purified mitochondria (purified mitochondria [2]): failed to impair the binding; effect on affinity purification of ANT with biotinylated Vpr52-96, intact mitochondria (ANT [8]): reduced the Vpr52-96-mediated recovery of ANT; effect on Vpr52-96 binding to membrane-associated ANT (ANT proteoliposomes) (ANT-proteoliposomes): reduced Vpr52-96 binding; inhibition of Vpr-induced matrix swelling (isolated mitochondria): inhibited; also recorded: strongly reduced

**Q.** With DKRTQFWRYFAGN (modifications not checked) [ANT-2-derived peptide ANT104-116] as the molecule, how does the Kd [9] read?
**A.** 35 µM

**Q.** For DTWAGVEAIIRILQQLLFIHFRIGCRHSRIGVTRQRRARNGASRS (modifications not checked) [Vpr52-96, P12520 52-96], which conductance of Vpr52-96-ANT channels in the presence of Bax [10] is on record?
**A.** 245

**Q.** And the conductance of channels in planar lipid bilayers [10]?
**A.** 190 pS

**Q.** Which EC50 (read off the curve) [11] does the source give for DTWAGVEAIIRILQQLLFIHFRIGCRHSRIGVTRQRRARNGASRS (not fully specified) [FITC-labeled Vpr52-96, P12520 52-96] here?
**A.** 0.9 µM
